Converted amounts (≈) assume the structure as drawn.
Legend:
Type in all cases: in vivo
[1] = system: barnyard grass (Echinochloa crus-galli); assay: Water application, herbicidal effect on barnyard grass (Table 2); design: key: 0: not damaged; 5: completely killed; settings: 25 days, score 0-5
Outline: (§1)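 Under water-lodged conditions, wettable-powder test compounds are applied to paddy soil carrying transplanted rice (3-leaf) and sown barnyard grass. Activity on these and on spontaneously emerged broad-leaved weeds is graded 0 to 5 twenty-five days later.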

[2] = system: rice; assay: Water application, phytotoxicity on rice (Table 2); design: key: 0: no effect; 1: very slightly affected; 2: slightly affected; 3: moderately affected; 4: considerably affected; 5: completely killed; settings: 25 days, score 0-5
Outline: as §1

[3] = system: redroot pigweed (Amaranthus retroflexus); assay: Pre-emergence application, herbicidal effect on redroot pigweed (Table 1); design: key: 0: not damaged; 5: completely killed; settings: 20 days after application, score 0-5
Outline: (§2)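 Pre-emergence soil application of wettable powders diluted in water over covered seeds (~10 cm pots). Greenhouse growth; visual 0–5 rating (0 none, 5 dead) at 20 days.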

[4] = system: radish; assay: Pre-emergence application, herbicidal effect on radish (Table 1); design: key: 0: not damaged; 5: completely killed; settings: 20 days after application, score 0-5
Outline: as §2

[5] = system: broad-leaved weeds, e.g., monochoria, false pimpernel and toothcup; assay: Water application, herbicidal effect on broad-leaved weeds (Table 2); design: key: 0: not damaged; 5: completely killed; settings: 25 days, score 0-5
Outline: as §1

[6] = system: common purslane (Portulaca oleracea); assay: Pre-emergence application, herbicidal effect on common purslane (Table 1); design: key: 0: not damaged; 5: completely killed; settings: 20 days after application, score 0-5
Outline: as §2

[7] = system: tobacco cut worm (Spondoptera litura); assay: Lethal effect on tobacco cut worm (Table 5); settings: tobacco cutworm, larvae on chinese cabbage leaves, 48 h
Description: The present compounds of an emulsifiable concentrate type were applied to leaves of chinese cabbage in the form of an 1000 fold dilute solution. After air-drying, third to fourth instar larvae of tobacco cut worm were released and after 48 hours the death and alive were observed.

[8] = system: common lambsquarter (Chenopodium album); assay: Pre-emergence application, herbicidal effect on common lambsquarter (Table 1); design: key: 0: not damaged; 5: completely killed; settings: 20 days after application, score 0-5
Outline: as §2

[9] = system: barnyard grass (Echinochloa crus-galli); assay: Pre-emergence application, herbicidal effect on barnyard grass (Table 1); design: key: 0: not damaged; 5: completely killed; settings: 20 days after application, score 0-5
Outline: as §2

[10] = system: large crabgrass (Digitaria sanguinalis); assay: Pre-emergence application, herbicidal effect on large crabgrass (Table 1); design: key: 0: not damaged; 5: completely killed; settings: 20 days after application, score 0-5
Outline: as §2

[11] = system: carmine mite (Tetranychus telavius); assay: Lethal effect on carmine mite, leaf dipping (Table 3); settings: foliar, 48 h
Description: A large number of carmine mite adult were made parasitic on leaves of potted kidney beans at a 2-leaves stage which had elapsed 10 days after sowing. The leaves of kidney bean on which carmine mites had been made parasitic were dipped for 1 minute in each aqueous solution of the present compounds of wettable powder type. Water was given to the leaves not to kill them, and after 48 hours the death and alive were observed microscopically to calculate the mortality. Values of LC50 were obtained from the mortality.

[12] = system: nematode; assay: Effect on nematode (Table 7); design: tested at 500 ppm; settings: 500 p.p.m., 24 hours
Description: 0.5 ml. of a nematode-containing aqueous solution separated from food according to Baermann's method was placed in a test tube with ground stopper containing 0.5 ml. of an aqueous dilute solution of each emulsifiable concentrates of the present compounds. The concentration of the active ingredient in the mixture was adjusted to 500 p.p.m. After 24 hours, the death and alive were observed microscopically to calculate the mortality.

[13] = system: rice stem borer (Chilo suppressalis); assay: Lethal effect on rice stem borer (Table 6); settings: 50 % emulsifiable concentrate, 1000 fold dilute solution, 4 days after application
Text: Eggs just before hatch of the rice stem borer were applied in a ratio of 100/pot near the root of rice plants grown up into the tillering stage in an […] Wagner's pot. After eggs were hatched and the larvae entered into stems of rice plants, an 1000 fold dilute solution of each 50 % emulsifiable concentrates of the present compounds was applied by means of a turn table.

[14] = system: broad-leaved weeds, e.g., monochoria, false pimpernel and toothcup; assay: Water application, herbicidal effect on broad-leaved weeds (Table 2); design: key: 0: no effect; 1: very slightly affected; 2: slightly affected; 3: moderately affected; 4: considerably affected; 5: completely killed; settings: 25 days, score 0-5
Text: (§3) Wagner pots of 14 cm. in diameter, which had been packed with 1.5 kg. of paddy field soil, were brought into the state of paddy fields. To the pots were transplanted rice seedlings at the 3-leave stage. Further, seeds of barnyard grass (Echinochloa crus-galli) were sowed in the pots and required amounts of test compounds were applied to the soil under water lodged condition. 25 days after application, the degrees of herbicidal activity and phytotoxity were investigated on above-mentioned plants which had been transplanted and sowed, and on broad-leaved weeds, e.g., monochoria (Monochoria viaginalis Presl.), false pimpernel (Linderna pyxidaria) and toothcup (Rotala indica Koehue), which had been spontaneously germinated. The test compounds were used in the form of wettable powder. The herbicidal effects and the phytotoxity were evaluated as follows by the numerals ranging from 0 to 5.

[15] = system: barnyard grass (Echinochloa crus-galli); assay: Water application, herbicidal effect on barnyard grass (Table 2); design: key: 0: no effect; 1: very slightly affected; 2: slightly affected; 3: moderately affected; 4: considerably affected; 5: completely killed; settings: 25 days, score 0-5
Text: as §3

| Compound | Herbicidal effects, barnyard grass ([1]; 20 g/a) | Herbicidal effects, barnyard grass ([1]; 40 g/a) | Phytotoxicity on rice ([2]; 10 g/a) | Phytotoxicity on rice ([2]; 20 g/a) | Phytotoxicity on rice ([2]; 40 g/a) | Herbicidal effect, redroot pigweed ([3]; 10 g./a.) | Herbicidal effect, redroot pigweed ([3]; 20 g./a.) | Herbicidal effect, redroot pigweed ([3]; 40 g./a.) | Herbicidal effect, radish ([4]; 10 g./a.) | Herbicidal effect, radish ([4]; 20 g./a.) | Herbicidal effect, radish ([4]; 40 g./a.) | Herbicidal effects, broad-leaved weeds ([5]; 10 g/a) | Herbicidal effect, common purslane ([6]; 20 g./a.) | Herbicidal effect, common purslane ([6]; 40 g./a.) | Herbicidal effect, common lambsquarter ([8]; 20 g./a.) | Herbicidal effect, common lambsquarter ([8]; 40 g./a.) | Herbicidal effect, barnyard grass ([9]; 20 g./a.) | Herbicidal effect, barnyard grass ([9]; 40 g./a.) | Herbicidal effect, large crabgrass ([10]; 20 g./a.) | Herbicidal effect, large crabgrass ([10]; 40 g./a.) | further results |
| --- | --- | --- | --- | --- | --- | --- | --- | --- | --- | --- | --- | --- | --- | --- | --- | --- | --- | --- | --- | --- | --- |
| CCOP(=O)(SCC(=O)N1CCCCC1CC)SCc1ccc(CC)cc1 (centres unmarked) [Compound 58] | 5 | 5 | 0 | 0 | 0 | 3 | 4 | 5 | 0 | 0 | 0 | 5 | 4 | 5 | 4 | 4 | 5 | 5 | 5 | 5 | Herbicidal effects, barnyard grass ([1]; 10 g/a): 5; Herbicidal effects, broad-leaved weeds ([5]; 20 g/a): 5; Herbicidal effects, broad-leaved weeds ([5]; 40 g/a): 5; Herbicidal effect, common purslane ([6]; 10 g./a.): 3; Mortality [7]: 72.0%; Herbicidal effect, common lambsquarter ([8]; 10 g./a.): 3; Herbicidal effect, barnyard grass ([9]; 10 g./a.): 4; Herbicidal effect, large crabgrass ([10]; 10 g./a.): 5 |
| CCOP(=O)(SCC(=O)N1CCCCC1C)SC(C)CC (centres unmarked) [Compound 5] | 5 | 5 | 0 | 0 | 0 | 5 | 5 | 5 | 0 | 0 | 0 | 5 | 5 | 5 | 5 | 5 | 5 | 5 | 5 | 5 | LC50 [11]: 7.9 mg/L (≈ 22.3 µM); Herbicidal effects, barnyard grass ([1]; 10 g/a): 5; Herbicidal effects, broad-leaved weeds ([5]; 20 g/a): 5; Herbicidal effects, broad-leaved weeds ([5]; 40 g/a): 5; Mortality [12]: 100%; Herbicidal effect, common purslane ([6]; 10 g./a.): 5; Mortality [7]: 70.0%; Mortality [13]: 88.9%; Herbicidal effect, common lambsquarter ([8]; 10 g./a.): 5; Herbicidal effect, barnyard grass ([9]; 10 g./a.): 5; Herbicidal effect, large crabgrass ([10]; 10 g./a.): 5 |
| CCCSP(=O)(OCC)SCC(=O)N1CCCC(C)C1 (centres unmarked) [Compound 13] | 5 | 5 | 0 | 0 | 0 | 4 | 5 | 5 | 0 | 0 | 0 | 5 | 5 | 5 | 5 | 5 | 5 | 5 | 5 | 5 | Herbicidal effects, barnyard grass ([1]; 10 g/a): 5; Herbicidal effects, broad-leaved weeds ([5]; 20 g/a): 5; Herbicidal effects, broad-leaved weeds ([5]; 40 g/a): 5; Herbicidal effect, common purslane ([6]; 10 g./a.): 4; Mortality [7]: 73.3%; Herbicidal effect, common lambsquarter ([8]; 10 g./a.): 4; Herbicidal effect, barnyard grass ([9]; 10 g./a.): 5; Herbicidal effect, large crabgrass ([10]; 10 g./a.): 5 |
| COP(=S)(NC(C)C)Oc1ccc(Cl)cc1Cl (centres unmarked) [Zytron, reference compound] | – | – | – | 0 | 0 | – | 0 | 1 | – | 0 | 0 | – | 1 | 2 | 0 | 2 | 3 | 4 | 1 | 3 | Herbicidal effects, broad-leaved weeds ([14]; 20 g/a): 2; Herbicidal effects, broad-leaved weeds ([14]; 40 g/a): 3; Herbicidal effects, barnyard grass ([15]; 20 g/a): 1; Herbicidal effects, barnyard grass ([15]; 40 g/a): 3 |
| CCOP(=O)(SCC(=O)N1CCCCC1C)SCc1ccc(C(C)(C)C)cc1 (centres unmarked) [Compound 50] | 5 | 5 | 0 | 0 | 1 | 5 | 5 | 5 | 0 | 1 | 2 | 5 | 5 | 5 | 5 | 5 | 5 | 5 | 5 | 5 | Herbicidal effects, barnyard grass ([1]; 10 g/a): 5; Herbicidal effects, broad-leaved weeds ([5]; 20 g/a): 5; Herbicidal effects, broad-leaved weeds ([5]; 40 g/a): 5; Mortality [12]: 100%; Herbicidal effect, common purslane ([6]; 10 g./a.): 5; Mortality [7]: 81.2%; Herbicidal effect, common lambsquarter ([8]; 10 g./a.): 5; Herbicidal effect, barnyard grass ([9]; 10 g./a.): 5; Herbicidal effect, large crabgrass ([10]; 10 g./a.): 5 |
| CCOP(=O)(SCCc1ccccc1)SCC(=O)N1CCCCC1C (centres unmarked) [Compound 63] | 5 | 5 | 0 | 0 | 0 | 4 | 5 | 5 | 0 | 0 | 0 | 5 | 5 | 5 | 4 | 5 | 5 | 5 | 5 | 5 | Herbicidal effects, broad-leaved weeds ([5]; 20 g/a): 5; Herbicidal effects, broad-leaved weeds ([5]; 40 g/a): 5; Herbicidal effect, common purslane ([6]; 10 g./a.): 4; Herbicidal effect, common lambsquarter ([8]; 10 g./a.): 4; Herbicidal effect, barnyard grass ([9]; 10 g./a.): 5; Herbicidal effect, large crabgrass ([10]; 10 g./a.): 4; Herbicidal effects, barnyard grass ([15]; 10 g/a): 4 |

Source: patent US4015974A, “Amido phosphorothiolates” (priority 1972, dated 1977)
